Data taken from patent US20210315816A1, “ANTIMICROBIAL COMPOSITIONS AND METHODS” (BOARD OF REGENTS OF THE UNIVERSITY OF NEBRASKA, priority 2018, published 2021).

Assays:
S. aureus [1] = details: 10 mg/kg, cited from earlier work
S. aureus USA300 LAC13c = test: Mouse model of S. aureus orthopedic implant biofilm infection, bacterial burdens; type: in vivo
Description: To model infectious complications that can arise in patients following arthroplasty, a mouse model of S. aureus orthopedic implant infection was used (Heim, et al. (2014) Methods Mol. Biol., 1106:183-191; Heim, et al. (2015) J. Leukoc. Biol., 98:1003-1013; Heim, et al. (2014) J. Immunol., 192:3778-3792; Heim, et al. (2015) J. Immunol., 194:3861-3872; Scherr, et al. (2014) Methods Mol. Biol., 1106:173-181). […] Briefly, mice were anesthetized with ketamine/xylazine (100 mg/kg and 5 mg/kg, respectively) and the surgical site was disinfected with povidone-iodine. After a surgical plane of anesthesia was achieved, a medial incision was created through the quadriceps with lateral displacement to access the distal femur. […]
Animals were placed in an induction chamber without restraint and anesthetized with 2.5% isoflurane. […] Nanoparticle injection and length of retention was evaluated in the same cohort of mice using an In Vivo Imaging System (IVIS® Spectrum; PerkinElmer, Waltham, Mass.) under isoflurane anesthesia, with excitation and emission wavelengths of 640 nm and 680 nm, respectively. […]

[2] = test system: biofilm-associated monocytes; test: JC-1 and 2-NBDG staining of biofilm-associated monocytes (OxPhos, glycolysis); type: in vivo, mouse; details: days 3 or 7 after intra-articular injection at day 7 post-infection; oligomycin 100 ng
Description: C57BL/6NCrl mice received a single intra-articular injection of free oligomycin only (Oligo; 100 ng), empty nanoparticles (CT), empty nanoparticles (CT)+free oligomycin (100 ng; not loaded), or oligomycin loaded nanoparticles (CTO) at day 7 post-infection and were analyzed at day 3 (FIG. 12A, 12B; 5 mice/group) or 7 (FIGS. 12C, 12D; 9-10 mice/group) after treatment. FIGS. 12A, 12C: OxPhos was calculated as the ratio of […] monocytes (CD11b^highLy6G^−Ly6C^+F4/80^−) following JC-1 staining and glycolytic activity was calculated as the percentage of 2-NBDG+ monocytes. FIGS. 12B, 12D: Bacterial burdens were assessed in the surrounding soft tissue, knee, femur, and implant, where the dotted lines represent the limit of detection (LOD). All results are reported as the mean±SD (*, p<0.05; **, p<0.01; ***, p<0.001; ****, p<0.0001; One-way ANOVA).
Leukocytes recovered from animals with sterile or S. aureus infected orthopedic implants were stained with the bi-potential dye JC-1 (5,5′,6,6′-Tetrachloro-1,1′,3,3′-tetraethylbenzimidazolocarbocyanine iodide; Cat #T3168 Invitrogen) or the fluorescent glucose analog 2-NBDG (2-(N-(7-Nitrobenz-2-oxa-1,3-diazol-4-yl)Amino)-2-Deoxyglucose; Cat #N13195 ThermoFisher) to evaluate OxPhos and glycolytic activity, respectively. JC-1 emits red fluorescence in mitochondria with large membrane potentials and green fluorescence in depolarized mitochondria. […]

[3] = test system: bone marrow-derived macrophages; test: IL-4 pre-treated bone marrow-derived macrophages with oligomycin: TNF-α, arginase, protein yield
Description: Bone marrow-derived macrophages were plated overnight and the following day cells were pre-treated with IL-4 (10 ng/mL) for 1 hour followed by various concentrations of oligomycin for 24 hours, whereupon TNF-α (FIG. 2A) and arginase (FIG. 2B) expression was determined by ELISA and enzymatic assay, respectively. Data are presented as the mean±SD combined from two independent experiments (n=6 biological replicates) (*, p<0.05; **, p<0.01; ***, p<0.001; Student's t-test).
Macrophages were expanded from the bone marrow of both male and female C57BL/6NCrl mice as described (Yamada, et al. (2018) Infect. Immun., 86(7) e00206-18). At day in vitro 6, macrophages were harvested and seeded at 5×10^4 cells/well in a 96-well plate. Following an overnight adherence period, macrophages were pre-treated with 10 ng/mL recombinant mouse (rm)IL-4 (Cat #574306 BioLegend, San Diego, Calif.) for 1 hour followed by exposure to various concentrations of oligomycin (Cat #11342 Cayman Chemical) for 24 hours, whereupon medium was collected to quantify TNF-α by cytometric bead array (Cat #552364, BD Biosciences) and arginase activity (Cat #MAK112, Millipore Sigma).

S. aureus [4] = test: S. aureus biofilm formation in 96-well plates ± oligomycin; type: cell-based; details: 10 μg/mL
Description: C57BL/6NCrl mice received intra-articular injections of oligomycin at 7 day post-infection (100 ng), or two sequential doses at days 7 and 8 post-infection (50 ng/day), or PBS and were sacrificed at day 14 post-infection. Bacterial burdens were quantified from the surrounding soft tissue, knee, femur, and implant. Results are from one experiment (n=5 mice/group/time point); (*, p<0.05; one-way ANOVA). Additionally, S. aureus biofilm formation was assessed in 96-well plates±oligomycin treatment (bottom graphs). Oligomycin (10 μg/mL) was added to planktonic S. aureus at time 0 (left panel) or mature biofilms for 4 days (right panel) to determine effects on bacterial growth at the indicated time points following oligomycin treatment. Cultures were replenished daily with fresh medium containing oligomycin. Results are presented as Log10 colony forming units (CFU) per well (mean±SD).

[5] = IL-4 10 ng/mL 1 hour, then oligomycin 24 hours, dose-dependent

| SMILES | S. aureus titers in the joint (S. aureus [1]) | S. aureus burdens on orthopedic implants (S. aureus [1]; near the limit of detection) | biofilm burdens (S. aureus USA300 LAC13c; days 3 or 7 after intra-articular injection, oligomycin 100 ng) | bacterial burdens (S. aureus USA300 LAC13c; direct intra-articular injection, one bolus (100 ng) or two sequential doses (50 ng/day), day 14 post-infection) | monocyte OxPhos activity (JC-1) [2] | toxicity to macrophages (protein yields) [3] | TNF-α expression [3, 5] | arginase activity [3, 5] | bactericidal activity during early biofilm formation or mature biofilms in vitro (S. aureus [4]) |
| --- | --- | --- | --- | --- | --- | --- | --- | --- | --- |
| CCCCCCCCCC(=O)N[C@@H](Cc1c[nH]c2ccccc12)C(=O)N[C@H](CC(N)=O)C(=O)N[C@@H](CC(=O)O)C(=O)N[C@@H]1C(=O)NCC(=O)N[C@@H](CCCN)C(=O)N[C@@H](CC(=O)O)C(=O)N[C@H](C)C(=O)N[C@@H](CC(=O)O)C(=O)NCC(=O)N[C@H](CO)C(=O)N[C@@H]([C@H](C)CC(=O)O)C(=O)N[C@@H](CC(=O)c2ccccc2N)C(=O)O[C@@H]1C [daptomycin] | less affected | < 10^2 CFU |  |  |  |  |  |  |  |
| CC[C@H]1/C=C/C=C/C[C@@H](C)[C@H](O)[C@@](C)(O)C(=O)[C@@H](C)[C@H](O)[C@@H](C)C(=O)[C@@H](C)[C@H](O)[C@@H](C)/C=C/C(=O)O[C@@H]2[C@H](C)[C@H](CC1)O[C@]1(CC[C@H](C)[C@H](C[C@@H](C)O)O1)[C@H]2C [oligomycin] |  |  | no changes | no effect on bacterial burdens | no changes | not toxic to macrophages | increasing TNF-α expression | decreasing arginase activity | no bactericidal activity |
